Laboratory results taken from ChEMBL document CHEMBL3608268, “Re-exploring the N-phenylpicolinamide derivatives to develop mGlu4 ligands with improved affinity and in vitro microsomal stability” (Bioorg Med Chem Lett, 2015).

Tests used:
[1] = molecular target: T1, Metabotropic glutamate receptor 4 (Homo sapiens, UniProt Q14833); experiment: Displacement of [3H]N-(4-chloro-3-methoxyphenyl)picolinamide from human mGlu4 receptor expressed in CHO cell membranes incubated for 30 mins by liquid scintillation counting method
T1 sequence (Q14833 whole entry): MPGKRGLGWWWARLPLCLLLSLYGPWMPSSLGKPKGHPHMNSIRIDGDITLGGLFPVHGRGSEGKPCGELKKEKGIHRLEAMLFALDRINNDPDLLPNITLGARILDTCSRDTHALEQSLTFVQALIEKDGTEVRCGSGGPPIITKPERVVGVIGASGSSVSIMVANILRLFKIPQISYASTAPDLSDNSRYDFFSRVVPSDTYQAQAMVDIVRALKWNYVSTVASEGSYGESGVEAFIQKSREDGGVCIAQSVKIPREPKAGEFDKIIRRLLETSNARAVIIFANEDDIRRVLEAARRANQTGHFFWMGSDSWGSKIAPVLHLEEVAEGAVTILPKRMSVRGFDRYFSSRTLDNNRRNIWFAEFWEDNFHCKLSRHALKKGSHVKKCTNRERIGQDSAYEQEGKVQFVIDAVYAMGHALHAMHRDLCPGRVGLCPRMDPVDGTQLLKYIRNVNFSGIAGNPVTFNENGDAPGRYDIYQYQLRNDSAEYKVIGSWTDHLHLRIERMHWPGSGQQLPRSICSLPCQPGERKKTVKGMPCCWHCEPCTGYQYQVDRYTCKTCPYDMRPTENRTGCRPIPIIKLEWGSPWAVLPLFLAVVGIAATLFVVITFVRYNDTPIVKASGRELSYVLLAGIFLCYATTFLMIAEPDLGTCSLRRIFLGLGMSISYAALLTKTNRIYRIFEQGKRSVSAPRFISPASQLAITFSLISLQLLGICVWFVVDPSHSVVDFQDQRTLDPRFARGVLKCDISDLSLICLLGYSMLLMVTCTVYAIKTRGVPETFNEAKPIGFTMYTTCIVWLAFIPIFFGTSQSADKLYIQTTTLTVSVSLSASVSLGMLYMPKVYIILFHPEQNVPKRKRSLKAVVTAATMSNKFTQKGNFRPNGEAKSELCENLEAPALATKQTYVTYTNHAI

[2] = molecular target: T1, Metabotropic glutamate receptor 4; experiment: Positive allosteric modulator activity at human mGlu4 receptor
[3] = molecular target: Metabotropic glutamate receptor 4 (Rattus norvegicus, UniProt P31423); experiment: Positive allosteric modulator activity at rat mGlu4 receptor
Chain of Metabotropic glutamate receptor 4 (Rattus norvegicus, UniProt P31423) (P31423 whole entry): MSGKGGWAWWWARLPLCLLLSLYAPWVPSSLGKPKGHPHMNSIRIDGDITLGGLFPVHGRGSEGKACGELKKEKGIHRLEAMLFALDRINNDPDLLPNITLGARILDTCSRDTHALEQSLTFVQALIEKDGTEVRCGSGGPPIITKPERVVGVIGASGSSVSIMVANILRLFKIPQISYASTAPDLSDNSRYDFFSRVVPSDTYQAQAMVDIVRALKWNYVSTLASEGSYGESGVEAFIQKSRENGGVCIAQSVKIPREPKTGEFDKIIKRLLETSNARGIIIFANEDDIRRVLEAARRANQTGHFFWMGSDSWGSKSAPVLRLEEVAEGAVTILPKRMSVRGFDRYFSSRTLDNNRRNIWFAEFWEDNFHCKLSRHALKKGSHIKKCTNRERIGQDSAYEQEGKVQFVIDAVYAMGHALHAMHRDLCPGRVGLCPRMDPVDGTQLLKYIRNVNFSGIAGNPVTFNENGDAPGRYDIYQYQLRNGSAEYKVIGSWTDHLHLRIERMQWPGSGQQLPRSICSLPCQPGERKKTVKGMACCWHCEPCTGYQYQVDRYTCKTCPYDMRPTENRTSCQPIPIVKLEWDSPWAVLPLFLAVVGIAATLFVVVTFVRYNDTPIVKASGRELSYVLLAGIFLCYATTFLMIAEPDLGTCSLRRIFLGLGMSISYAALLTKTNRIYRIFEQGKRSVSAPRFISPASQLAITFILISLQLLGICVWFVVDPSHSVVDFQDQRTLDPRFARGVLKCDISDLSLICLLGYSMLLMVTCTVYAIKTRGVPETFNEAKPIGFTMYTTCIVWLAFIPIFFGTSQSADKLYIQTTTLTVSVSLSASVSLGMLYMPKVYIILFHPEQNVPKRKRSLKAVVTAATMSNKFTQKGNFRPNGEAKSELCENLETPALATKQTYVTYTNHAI

[4] = tested on: Liver microsome; experiment: Half life in Wistar rat liver microsomes in presence of NADPH generation system by HPLC method; format: ADME
[5] = pampa
Description: Effective permeability by PAMPA method

[6] = molecular target: Metabotropic glutamate receptor 2 (Homo sapiens, UniProt Q14416); experiment: Activity at mGlu2 receptor (unknown origin) expressed in HEK293 cells pre-treated for 15 mins before addition of EC80 concentration of reference agonist for another 15 mins by cAMP accumulation assay; format: functional, cell-based
Chain of Metabotropic glutamate receptor 2 (Q14416 whole entry): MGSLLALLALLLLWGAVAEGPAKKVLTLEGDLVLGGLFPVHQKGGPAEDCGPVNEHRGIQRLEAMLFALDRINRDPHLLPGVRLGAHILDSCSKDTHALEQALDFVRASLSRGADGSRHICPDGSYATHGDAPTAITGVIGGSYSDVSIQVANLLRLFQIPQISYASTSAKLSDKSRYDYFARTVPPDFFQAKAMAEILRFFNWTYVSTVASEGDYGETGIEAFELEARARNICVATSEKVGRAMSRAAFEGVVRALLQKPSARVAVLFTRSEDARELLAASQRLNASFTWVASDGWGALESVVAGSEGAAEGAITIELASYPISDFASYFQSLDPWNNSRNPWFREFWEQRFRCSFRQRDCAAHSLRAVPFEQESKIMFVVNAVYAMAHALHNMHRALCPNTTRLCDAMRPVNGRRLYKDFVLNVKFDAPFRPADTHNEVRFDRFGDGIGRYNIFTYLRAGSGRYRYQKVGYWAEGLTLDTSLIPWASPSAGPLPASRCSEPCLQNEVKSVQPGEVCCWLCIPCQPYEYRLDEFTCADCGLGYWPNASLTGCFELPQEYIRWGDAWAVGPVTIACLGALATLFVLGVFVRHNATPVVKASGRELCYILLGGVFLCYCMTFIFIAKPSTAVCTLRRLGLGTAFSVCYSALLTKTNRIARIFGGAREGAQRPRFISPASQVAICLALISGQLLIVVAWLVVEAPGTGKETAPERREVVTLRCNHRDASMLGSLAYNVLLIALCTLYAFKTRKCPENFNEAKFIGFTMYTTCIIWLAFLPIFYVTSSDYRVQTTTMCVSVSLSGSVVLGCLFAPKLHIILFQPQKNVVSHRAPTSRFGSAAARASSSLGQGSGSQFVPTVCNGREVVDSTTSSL

[7] = molecular target: Metabotropic glutamate receptor 8 (Homo sapiens, UniProt O00222); experiment: Activity at mGlu8 receptor (unknown origin) expressed in HEK293 cells pre-treated for 15 mins before addition of EC80 concentration of reference agonist for another 15 mins by cAMP accumulation assay; format: functional, cell-based
Chain of Metabotropic glutamate receptor 8 (O00222 whole entry): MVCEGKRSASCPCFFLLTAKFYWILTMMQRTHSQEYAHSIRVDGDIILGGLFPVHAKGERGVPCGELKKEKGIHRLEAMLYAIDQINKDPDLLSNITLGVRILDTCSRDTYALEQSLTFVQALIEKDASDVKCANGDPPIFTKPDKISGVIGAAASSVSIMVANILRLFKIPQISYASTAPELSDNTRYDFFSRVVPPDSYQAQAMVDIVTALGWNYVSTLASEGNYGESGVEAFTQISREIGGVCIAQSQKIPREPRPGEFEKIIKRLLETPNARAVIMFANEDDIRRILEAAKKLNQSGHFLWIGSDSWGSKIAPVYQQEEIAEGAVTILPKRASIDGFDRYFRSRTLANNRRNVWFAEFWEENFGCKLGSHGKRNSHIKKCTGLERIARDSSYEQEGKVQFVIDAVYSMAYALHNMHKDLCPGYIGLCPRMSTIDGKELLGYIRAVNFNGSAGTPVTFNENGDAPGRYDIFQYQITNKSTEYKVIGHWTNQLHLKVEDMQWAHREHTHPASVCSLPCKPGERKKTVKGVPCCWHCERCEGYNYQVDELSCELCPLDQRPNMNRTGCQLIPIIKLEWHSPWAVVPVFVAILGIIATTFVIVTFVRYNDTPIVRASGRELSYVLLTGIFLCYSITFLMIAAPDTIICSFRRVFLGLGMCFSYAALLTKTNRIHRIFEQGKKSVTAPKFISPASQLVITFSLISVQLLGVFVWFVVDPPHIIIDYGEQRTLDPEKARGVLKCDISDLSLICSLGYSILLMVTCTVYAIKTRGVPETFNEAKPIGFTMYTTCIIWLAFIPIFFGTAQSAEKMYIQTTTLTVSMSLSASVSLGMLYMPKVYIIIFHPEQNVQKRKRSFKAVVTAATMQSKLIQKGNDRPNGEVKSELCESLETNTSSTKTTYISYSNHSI

[8] = molecular target: Metabotropic glutamate receptor 1 (Homo sapiens, UniProt Q13255); experiment: Activity at mGlu1 receptor (unknown origin) expressed in HEK293 cells by Ca2+ mobilization assay; format: functional, cell-based
Chain of Metabotropic glutamate receptor 1 (Q13255 whole entry): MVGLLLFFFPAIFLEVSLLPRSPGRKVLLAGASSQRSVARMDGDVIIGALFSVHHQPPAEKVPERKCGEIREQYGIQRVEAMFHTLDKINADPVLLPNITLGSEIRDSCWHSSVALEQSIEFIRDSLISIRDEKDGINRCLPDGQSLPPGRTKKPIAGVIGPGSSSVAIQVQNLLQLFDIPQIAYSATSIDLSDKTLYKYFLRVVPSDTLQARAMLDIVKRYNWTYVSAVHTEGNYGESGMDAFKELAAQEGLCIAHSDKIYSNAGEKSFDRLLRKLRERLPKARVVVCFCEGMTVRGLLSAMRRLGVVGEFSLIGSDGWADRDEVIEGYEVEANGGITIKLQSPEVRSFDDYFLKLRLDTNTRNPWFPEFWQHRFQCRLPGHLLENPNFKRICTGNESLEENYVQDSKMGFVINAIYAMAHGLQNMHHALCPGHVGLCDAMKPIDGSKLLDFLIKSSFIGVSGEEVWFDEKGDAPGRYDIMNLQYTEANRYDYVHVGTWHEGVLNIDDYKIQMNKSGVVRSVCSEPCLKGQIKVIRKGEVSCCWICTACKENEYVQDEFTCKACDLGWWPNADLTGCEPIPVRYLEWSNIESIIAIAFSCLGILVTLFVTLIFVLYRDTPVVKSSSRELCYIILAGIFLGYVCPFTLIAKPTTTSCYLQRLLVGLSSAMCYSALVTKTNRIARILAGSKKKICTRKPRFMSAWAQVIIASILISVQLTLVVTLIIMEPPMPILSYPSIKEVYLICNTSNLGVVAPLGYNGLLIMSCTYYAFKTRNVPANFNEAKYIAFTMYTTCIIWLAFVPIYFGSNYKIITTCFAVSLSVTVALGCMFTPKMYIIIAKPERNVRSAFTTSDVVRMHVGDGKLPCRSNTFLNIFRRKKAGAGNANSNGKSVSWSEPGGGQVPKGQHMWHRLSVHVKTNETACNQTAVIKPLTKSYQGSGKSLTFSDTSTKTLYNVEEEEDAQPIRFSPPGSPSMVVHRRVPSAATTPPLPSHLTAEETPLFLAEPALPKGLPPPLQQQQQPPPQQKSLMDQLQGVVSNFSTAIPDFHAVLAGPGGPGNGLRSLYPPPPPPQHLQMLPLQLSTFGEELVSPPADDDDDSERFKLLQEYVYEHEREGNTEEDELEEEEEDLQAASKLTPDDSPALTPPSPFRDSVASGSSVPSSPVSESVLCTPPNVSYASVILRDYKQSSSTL

[9] = molecular target: Metabotropic glutamate receptor 5 (Homo sapiens, UniProt P41594); experiment: Activity at mGlu5 receptor (unknown origin) expressed in HEK293 cells by Ca2+ mobilization assay; format: functional, cell-based
[10] = molecular target: Metabotropic glutamate receptor 6 (Homo sapiens, UniProt O15303); experiment: Activity at mGlu6 receptor (unknown origin) expressed in HEK293 cells pre-treated for 15 mins before addition of EC80 concentration of reference agonist for another 15 mins by cAMP accumulation assay; format: functional, cell-based

Work on `CSc1cccc(NC(=O)c2ccccn2)c1` yielded an IC50 [1] of 4.9 nM.
With `c1cnc(Nc2nc3c(s2)CCCc2[nH]ncc2-3)nc1` the EC50 [2] was 9 nM.
`COc1cc(NC(=O)c2cccc(F)n2)ccc1Cl` gave an IC50 [1] of 7.3 nM.
With `Cc1ccnc(Nc2nc(-c3cn[nH]c3)c(C)s2)n1` the EC50 [3] was 9 nM, the t1/2 [4] was 7 min and the Peff [5] was 257 ×10⁻⁶ cm/s.
In the case of `COc1cc(NC(=O)c2ccccn2)ccc1Br`, the IC50 [1] is reported as 322 nM.
`COc1cc(NC(=O)c2ccccn2)ccc1I` showed an IC50 [1] of 146 nM.
For `COc1cccc(NC(=O)c2ccccn2)c1`, the IC50 [1] was 13.7 nM.
`O=C(Nc1cccc(OC(F)F)c1)c1cccc(F)n1` gave an IC50 [1] of 6.7 nM.
Work on `COc1cc(NC(=O)c2cccc(F)n2)ccc1F` yielded an IC50 [1] of 89.2 nM.
`N#Cc1cccc(NC(=O)c2ccccn2)c1` gave an IC50 [1] of 10.4 nM.
For `N#Cc1cc(NC(=O)c2ccccn2)ccc1F`, the IC50 [1] was 7.4 nM.
`N#Cc1cc(NC(=O)c2ccccn2)ccc1Cl` gave an IC50 [1] of 5.3 nM.
For `N#Cc1cc(NC(=O)c2ccccn2)ccc1Br`, the IC50 [1] was 47 nM.
For `N#Cc1cc(NC(=O)c2ccccn2)ccc1I`, the IC50 [1] was 172 nM.
Molecule `O=C(Nc1ccc(Cl)c(OCF)c1)c1ccccn1` has an IC50 [1] of 3.2 nM, a t1/2 [4] of 5.8 min and a Peff [5] of 272 ×10⁻⁶ cm/s.
Molecule `[2H]C([2H])(F)Oc1cc(NC(=O)c2ccccn2)ccc1Cl` has an IC50 [6] greater than 30000 nM, an IC50 [7] greater than 30000 nM and an IC50 [8] greater than 30000 nM. For the same molecule, the IC50 [9] was greater than 30000 nM, the IC50 [1] was 3.2 nM and the IC50 [10] was greater than 30000 nM. The t1/2 [4] was 7.4 min.
In the case of `[2H]C([2H])(F)Oc1cccc(NC(=O)c2ccccn2)c1`, the IC50 [1] is reported as 3.7 nM.
For `O=C(Nc1cccc(OC(F)F)c1)c1ccccn1`, the t1/2 [4] was 5.2 min and the Peff [5] was 214 ×10⁻⁶ cm/s.
In the case of `COc1cc(NC(=O)c2ccccn2)ccc1F`, the IC50 [1] is reported as 31.6 nM.
For `O=C(Nc1cccc(Cl)c1)c1ccccn1`, the EC50 [2] was 1200 nM and the EC50 [3] was 330 nM.
Molecule `COc1cc(NC(=O)c2ccccn2)ccc1Cl` has a t1/2 [4] of 4.9 min and a Peff [5] of 256 ×10⁻⁶ cm/s.
